The numbers were not newly measured in patent publication US7049092B1 (priority 1999, dated 2006), which cites them from elsewhere.

The data set addresses hormone-sensitive lipase. To be noted: read-out: IC50 (concentration producing 50% inhibition).

The structures appear in SMILES notation.

On to `[Cl][Hg][Cl]` [HgCl2 (mercuric chloride), mercuric chloride], for which the IC50 is 11 µM.
